Experimental data taken from patent US10882860B2, “Treatment of osteoarthritis” (Samumed, LLC, priority 2015, dated 2021).

Assay: Phase 1 clinical study: pharmacokinetics
Format: in vivo
Conditions: human; cohorts 1, 2, and 3 (0.03, 0.07, 0.23 mg); 0, 4, 24 hours, Weeks 4 and 12; BQL
Description: The study was a first-in-human, multicenter, 24-week, placebo-controlled, single-dose, dose-escalation safety study of a Wnt pathway inhibitor in subjects suffering from moderate to severe symptomatic knee OA. The sample size was 20 subjects (randomized 4:1, 16 active: 4 placebo) per dosing cohort. Inclusion criteria included: Age, 50-75 years; Western Ontario and McMaster Universities Arthritis Index (WOMAC) Total score, 36-72 (out of 96); Kellgren-Lawrence grade, 2 or 3; and a willingness to omit pain medication for 24 hours prior to pain assessments. Exclusion criteria included: BMI>40; and treatment with IA steroids within 2 months or HA derivatives within 6 months prior to injection. A full list of the inclusion and exclusion criteria for this study can be found on clinicaltrials.gov (NCT02095548).
The dosing sequence included suspension compositions of either 0.03 mg, 0.07 mg, or 0.23 mg of the compound of Formula (I) (Form 1) per 2 mL injection in a vehicle containing 0.5% carboxymethylcellulose sodium and 0.05% polysorbate 80 in pH 7.4 phosphate buffered saline. […]
PK samples were collected at 0, 4, and 24 hours post dose, and at Weeks 4 and 12. All subjects in cohorts 1, 2, and 3 had levels below limits of quantitation (BQL<0.100 ng/mL) at all recorded time points.

## CC(C)CC(=O)Nc1cncc(-c2ccc3[nH]nc(-c4nc5c(-c6cccc(F)c6)cncc5[nH]4)c3c2)c1 [compound of Formula (I)]
  plasma level (PK samples): < 0.100 ng/mL
